Test results published in patent US20190328691A1, “ANTIBIOTIC THERAPY” (Boulos & Cooper Pharmaceuticals Pty Ltd, priority 2015, published 2019).
Like-named read-outs stand apart in the source and are kept apart here.

Legend:
[1] = system: Staphylococcus aureus (ATCC 29213); test: Checkerboard combination / MIC assay with S. aureus ATCC 29213; assay type: cell-based; details: S. aureus ATCC 29213; for MIC: Staphylococcus aureus, read-out: MIC of antibiotic alone
Experimental: (§1) Colonies were suspended in PBS. The absorbance of each suspension was measured with a spectrophotometer, and then the suspension was adjusted to 1×10^6 CFU/mL. The testing inoculum was prepared within 20 minutes before adding to wells of the test plate. Final cellular density in the checkerboard assays was 5×10^5 CFU/mL.
(§2) The combination effect of antibacterial substances administered together was evaluated by an in vitro checkerboard combination method with Staphylococcus aureus (ATCC 29213) and Staphylococcus aureus (BAA-1717). Ramizol and Chlopam were tested alone in 11 points by two-fold serial titration and in combination with different commercial antibiotics which were tested in a 7-point titration alone and in combination with Ramizol and Chlopam using the checkerboard technique as recommended by the Clinical & Laboratory Standards Institute (CLSI. Methods for Dilution In Antimicrobial Susceptibility Tests for Bacteria That Grow Aerobically; Approved Standard-Eighth Edition. CLSI document M07-A8 (ISBN 1-56238-689-1). Vol. 29 No. 2. Clinical and Laboratory Standards Institute, USA, 2009). The commercial antibiotics were also tested alone. Twenty-four checkerboard tests were performed.
(§3) The starting concentration of Ramizol, Chlopam, and the commercial antibiotics was four fold of the MIC. The testing range for each combination was described in the following summary tables.
(§4) Compound dilutions of Ramizol and Chlopam were performed in 100% DMSO and the final DMSO concentration in all test wells was 2%. Growth control wells also included 2% DMSO. CLSI protocol was followed for medium, inoculum preparation, and endpoint reading. The commercial antibiotics were dissolved and diluted in the CLSI specified diluent. The final inoculum count for each strain was 5×10^5 CFU/mL.
Cefepime, Daptomycin, Linezolid, Mupirocin, Oxacillin and Vancomycin were also tested alone. Each test substance was dissolved and diluted in 100% DMSO or specified solvent. Each test substance dilution (2 μL) was added to 96 μL broth CAMHB. CAMHB seeded with S. aureus ATCC 29213 at 1×10^6 CFU/mL (100 μL) was then added to the plate to generate a final cell count at 5×10^5 CFU/mL.
(§5) Assay plates were incubated and MIC endpoints were read as described in the MIC assay. FIC (Fraction Inhibitory Concentration) and FIC Index (FICI) values for each test condition and the average of FICI values of all pairwise combinations were calculated to determine if synergy or antagonism existed between the two substances. The FIC index was determined by calculating the sum of the ratios of MICs for both substances. Arithmetically, the FIC Index of a combination of Substance 1 and Substance 2 was defined as following: FICI=Σ[FIC(Substance 1)+FIC(Substance 2)]=[(MIC of Substance 1 in combination/MIC of Substance 1 alone)+(MIC of Substance 2 in combination/MIC of Substance 2 alone)]. Synergy is defined as the FICI (Σ)≤0.5; additivity as FICI (Σ)>0.5 to ≤1; indifference as FICI (Σ)>1 to ≤4; antagonism is defined as the FICI (Σ)>4 (Zinner and Blaser, J. Journal of Antimicrobial Chemotherapy (1986), 17, 1-5; Amin, et al BMC Complementary & Alternative Medicine (2015), 15, 59; Zuo, et al. Molecules (2011), 16, 9819-9826).

[2] = system: Staphylococcus aureus (BAA-1717); test: Checkerboard combination / MIC assay with S. aureus BAA-1717 (MRSA); assay type: cell-based; details: for Effect of individual antibiotic combinations: S. aureus BAA-1717
Experimental: as §1, §2, §3, §4
Each test substance was dissolved and diluted in 100% DMSO or specified solvent. Each test substance dilution (2 μL) was added to 96 μL broth CAMHB. CAMHB seeded with S. aureus BAA-1717 at 1×10^6 CFU/mL (100 μL) was then added to the plate to generate a final cell count at 5×10^5 CFU/mL.
as §5

MIC of antibiotic in combination with Chlopam ([1]; Chlopam 0.003906 μg/mL): 0.5 µg/mL | MIC of antibiotic in combination with Chlopam ([1]; Chlopam 0.0078125 μg/mL): 0.5 µg/mL | MIC of antibiotic in combination with Chlopam ([1]; Chlopam 0.015625 μg/mL): 0.5 µg/mL | MIC of antibiotic in combination with Chlopam ([1]; Chlopam 0.25 μg/mL): 0.25 µg/mL | MIC of antibiotic in combination with Chlopam ([1]; Chlopam 0.5 μg/mL): 0.016 µg/mL | MIC of antibiotic in combination with Ramizol ([1]; Ramizol 0.015625 μg/mL): 0.5 µg/mL | MIC of antibiotic in combination with Ramizol ([1]; Ramizol 0.03125 μg/mL): 0.5 µg/mL | MIC of antibiotic in combination with Ramizol ([1]; Ramizol 0.0625 μg/mL): 0.5 µg/mL | MIC of antibiotic in combination with Ramizol ([1]; Ramizol 0.125 μg/mL): 0.5 µg/mL | MIC of antibiotic in combination with Ramizol ([1]; Ramizol 4 μg/mL): 0.016 µg/mL | MIC ([1]; ATCC29213, Table 4, checkerboard series with Chlopam): 0.5 µg/mL | MIC ([1]; ATCC29213, Table 7, checkerboard series with Ramizol): 0.5 µg/mL | MIC of antibiotic in combination with Chlopam ([2]; Chlopam 0.001953 μg/mL, S. aureus ATCC BAA-1717): 0.5 µg/mL | MIC of antibiotic in combination with Chlopam ([2]; Chlopam 0.003906 μg/mL, S. aureus ATCC BAA-1717): 0.5 µg/mL | MIC of antibiotic in combination with Chlopam ([2]; Chlopam 0.0078125 μg/mL, S. aureus ATCC BAA-1717): 0.5 µg/mL | MIC of antibiotic in combination with Chlopam ([2]; Chlopam 0.015625 μg/mL, S. aureus ATCC BAA-1717): 0.5 µg/mL | MIC of antibiotic in combination with Chlopam ([2]; Chlopam 0.5 μg/mL, S. aureus ATCC BAA-1717): 0.016 µg/mL | MIC of antibiotic in combination with Ramizol ([2]; Ramizol 0.015625 μg/mL, S. aureus ATCC BAA-1717): 0.5 µg/mL | MIC of antibiotic in combination with Ramizol ([2]; Ramizol 0.03125 μg/mL, S. aureus ATCC BAA-1717): 0.5 µg/mL | MIC of antibiotic in combination with Ramizol ([2]; Ramizol 0.0625 μg/mL, S. aureus ATCC BAA-1717): 0.5 µg/mL | MIC of antibiotic in combination with Ramizol ([2]; Ramizol 0.125 μg/mL, S. aureus ATCC BAA-1717): 0.5 µg/mL | MIC of antibiotic in combination with Ramizol ([2]; Ramizol 2 μg/mL, S. aureus ATCC BAA-1717): 0.25 µg/mL | MIC of antibiotic in combination with Ramizol ([2]; Ramizol 4 μg/mL, S. aureus ATCC BAA-1717): 0.016 µg/mL | MIC ([2]; Staphylococcus aureus, ATCC BAA-1717 / BAA-1717, Table 4, checkerboard series with Chlopam, S. aureus ATCC BAA-1717, read-out: MIC of antibiotic alone): 0.5 µg/mL | MIC of antibiotic alone ([2]; Table 7, checkerboard series with Ramizol, S. aureus ATCC BAA-1717): 0.5 µg/mL
SMILES: CCCCCCCCCC(=O)N[C@@H](Cc1c[nH]c2ccccc12)C(=O)N[C@H](CC(N)=O)C(=O)N[C@@H](CC(=O)O)C(=O)N[C@@H]1C(=O)NCC(=O)N[C@@H](CCCN)C(=O)N[C@@H](CC(=O)O)C(=O)N[C@H](C)C(=O)N[C@@H](CC(=O)O)C(=O)NCC(=O)N[C@H](CO)C(=O)N[C@@H]([C@H](C)CC(=O)O)C(=O)N[C@@H](CC(=O)c2ccccc2N)C(=O)O[C@@H]1C [Daptomycin]
FICI of combination with Chlopam ([1]; Chlopam 0.003906 μg/mL + labelled antibiotic at MIC of same cell): 1.0 | FICI of combination with Chlopam ([1]; Chlopam 0.0078125 μg/mL + labelled antibiotic at MIC of same cell): 1.0 | FICI of combination with Chlopam ([1]; Chlopam 0.015625 μg/mL + labelled antibiotic at MIC of same cell): 1.0 | FICI of combination with Chlopam ([1]; Chlopam 0.25 μg/mL + labelled antibiotic at MIC of same cell): 1.0 | FICI of combination with Chlopam ([1]; Chlopam 0.5 μg/mL + labelled antibiotic at MIC of same cell): 1.0 | Effect of individual antibiotic combinations ([1]; Chlopam and daptomycin: 0.003901 and 0.5, 0.0078125 and 0.5, 0.015625 and 0.5, 0.25 and 0.25, 0.5 and 0.016 μg/mL): additive effect | FICI of combination with Ramizol ([1]; Ramizol 0.015625 μg/mL + labelled antibiotic at MIC of same cell): 1.0 | FICI of combination with Ramizol ([1]; Ramizol 0.03125 μg/mL + labelled antibiotic at MIC of same cell): 1.0 | FICI of combination with Ramizol ([1]; Ramizol 0.0625 μg/mL + labelled antibiotic at MIC of same cell): 1.0 | FICI of combination with Ramizol ([1]; Ramizol 0.125 μg/mL + labelled antibiotic at MIC of same cell): 1.0 | FICI of combination with Ramizol ([1]; Ramizol 4 μg/mL + labelled antibiotic at MIC of same cell): 1.0 | Effect of individual antibiotic combinations ([1]; Ramizol and daptomycin: 0.015625 and 0.5, 0.03125 and 0.5, 0.0625 and 0.5, 0.125 and 0.5, 2 and 0.25, 2 and 0.125, 2 and 0.063, 2 and 0.031, 4 and 0.016 μg/mL): additive effect | mean FICI of combination with Chlopam ([1]; labelled antibiotic + Chlopam, mean of all pairwise combinations): 1.1 | Effect of the combinations with Ramizol (by mean FICI) ([1]; labelled antibiotic + Ramizol): additive effect | mean FICI of combination with Ramizol ([1]; labelled antibiotic + Ramizol, mean of all pairwise combinations): 1.0 | FICI of combination with Chlopam ([2]; Chlopam 0.001953 μg/mL + labelled antibiotic at MIC of same cell, S. aureus ATCC BAA-1717): 1.0 | FICI of combination with Chlopam ([2]; Chlopam 0.003906 μg/mL + labelled antibiotic at MIC of same cell, S. aureus ATCC BAA-1717): 1.0 | FICI of combination with Chlopam ([2]; Chlopam 0.0078125 μg/mL + labelled antibiotic at MIC of same cell, S. aureus ATCC BAA-1717): 1.0 | FICI of combination with Chlopam ([2]; Chlopam 0.015625 μg/mL + labelled antibiotic at MIC of same cell, S. aureus ATCC BAA-1717): 1.0 | FICI of combination with Chlopam ([2]; Chlopam 0.5 μg/mL + labelled antibiotic at MIC of same line, S. aureus ATCC BAA-1717): 1.0 | Effect of individual antibiotic combinations ([2]; Chlopam and daptomycin: 0.001953 and 0.5, 0.003901 and 0.5, 0.0078125 and 0.5, 0.015625 and 0.5, 0.5 and 0.016 μg/mL): additive effect | FICI of combination with Ramizol ([2]; Ramizol 0.015625 μg/mL + labelled antibiotic at MIC of same cell, S. aureus ATCC BAA-1717): 1.0 | FICI of combination with Ramizol ([2]; Ramizol 0.03125 μg/mL + labelled antibiotic at MIC of same cell, S. aureus ATCC BAA-1717): 1.0 | FICI of combination with Ramizol ([2]; Ramizol 0.0625 μg/mL + labelled antibiotic at MIC of same cell, S. aureus ATCC BAA-1717): 1.0 | FICI of combination with Ramizol ([2]; Ramizol 0.125 μg/mL + labelled antibiotic at MIC of same line, S. aureus ATCC BAA-1717): 1.0 | FICI of combination with Ramizol ([2]; Ramizol 2 μg/mL + labelled antibiotic at MIC of same line, S. aureus ATCC BAA-1717): 1.0 | FICI of combination with Ramizol ([2]; Ramizol 4 μg/mL + labelled antibiotic at MIC of same cell, S. aureus ATCC BAA-1717): 1.0 | Effect of individual antibiotic combinations ([2]; Ramizol and daptomycin: 0.015625 and 0.5, 0.03125 and 0.5, 0.0625 and 0.5, 0.125 and 0.5, 2 and 0.25, 4 and 0.016 μg/mL): additive effect | mean FICI of combination with Chlopam ([2]; labelled antibiotic + Chlopam, mean of all pairwise combinations, S. aureus ATCC BAA-1717): 1.2 | mean FICI of combination with Ramizol ([2]; labelled antibiotic + Ramizol, mean of all pairwise combinations, S. aureus ATCC BAA-1717): 1.1
